Patent publication US9457033B2, “Steroid alkaloids and uses thereof as antimicrobial agents against electron transport-deficient microbes and as potentiators for antimicrobial agents against pathogenic bacteria” (priority 2011, dated 2016)
Converted amounts (≈) assume the structure as drawn. Like-named read-outs stand apart in the source and are kept apart here.

Experiments:
[1] = tested on: S. aureus Newbould (normal strain); assay: MIC, microdilution in BHI 48 h; type: cell-based, Staphylococcus aureus; conditions: Staphylococcus aureus; Newbould, normal strain; read-out: MIC
[2] = tested on: S. aureus SCV NewbouldΔhemB; assay: MIC, microdilution in BHI 48 h; type: cell-based, Staphylococcus aureus
[3] = tested on: S. aureus CF07-L (normal strain); assay: MIC, microdilution in BHI 48 h (Examples 1, 3); type: cell-based, Staphylococcus aureus
S. aureus SCV CF07-S = assay: MIC, microdilution in BHI 48 h (Examples 1, 3); type: cell-based, Staphylococcus aureus
[4] = tested on: S. aureus CF1A-L (normal strain); assay: MIC, microdilution in BHI 48 h; type: cell-based, Staphylococcus aureus; conditions: Staphylococcus aureus; CF1A-L, normal strain; read-out: MIC
S. aureus SCV CF1D-S = assay: MIC, microdilution in BHI 48 h; type: cell-based, Staphylococcus aureus; conditions: Staphylococcus aureus, SCVCF1DS
S. aureus 8325-4 = assay: MIC, microdilution in CAMHB 24 h; type: cell-based, Staphylococcus aureus; conditions: Staphylococcus aureus, 83254; 8325-4; Laboratory strain; read-out: MIC
S. aureus Newbould = assay: MIC, microdilution in CAMHB 24 h; type: cell-based, Staphylococcus aureus; conditions: Staphylococcus aureus; Newbould; Cow (mastitis); read-out: MIC
S. aureus SHY97-3906 = assay: MIC, microdilution in CAMHB 24 h; type: cell-based, Staphylococcus aureus; conditions: Staphylococcus aureus, SHY973906; SHY97-3906; Cow (mastitis); read-out: MIC
S. aureus ATCC 43300 = assay: MIC, microdilution in CAMHB 24 h; type: cell-based, Staphylococcus aureus; conditions: Staphylococcus aureus, ATCC 43300 / MRSA; ATCC 43300; Human (HA); MRSA; read-out: MIC
S. aureus ATCC BAA-41 = assay: MIC, microdilution in CAMHB 24 h; type: cell-based, Staphylococcus aureus; conditions: Staphylococcus aureus, ATCC BAA-41 / MRSA; ATCC BAA-41; Human (HA); MRSA; read-out: MIC
S. aureus N315 = assay: microbe, parasite or virus in culture; type: cell-based, Staphylococcus aureus; conditions: Staphylococcus aureus, MRSA
S. aureus MA078038 = assay: MIC, microdilution in CAMHB 24 h; type: cell-based, Staphylococcus aureus; conditions: Staphylococcus aureus; MA078038; Human (CA); MRSA; read-out: MIC
S. aureus Newman = assay: MIC, microdilution in CAMHB 24 h; type: cell-based, Staphylococcus aureus; conditions: Staphylococcus aureus; Newman; Human (Osteo); read-out: MIC
S. aureus MRSA COL = assay: MIC, microdilution in CAMHB 24 h; type: cell-based, Staphylococcus aureus; conditions: Staphylococcus aureus; MRSA COL; Human (SSTI); read-out: MIC
S. aureus Mu50 = assay: MIC, microdilution in CAMHB 24 h; type: cell-based, Staphylococcus aureus; conditions: Staphylococcus aureus; Mu50; Human (SSTI); MRSA, VISA; read-out: MIC
S. aureus Sa220c = assay: MIC, microdilution in CAMHB 24 h; type: cell-based, Staphylococcus aureus; conditions: Staphylococcus aureus; Sa220c; Human (SSTI); MRSA; read-out: MIC
S. aureus Sa228c = assay: MIC, microdilution in CAMHB 24 h; type: cell-based, Staphylococcus aureus; conditions: Staphylococcus aureus, MRSA
S. aureus CF1A-L = assay: MIC, microdilution in CAMHB 24 h; type: cell-based, Staphylococcus aureus; conditions: Staphylococcus aureus, CF1AL; CF1A-L; Human (CF lungs); read-out: MIC
S. aureus CF2A-L = assay: MIC, microdilution in CAMHB 24 h; type: cell-based; conditions: Staphylococcus aureus, CF2AL; CF2A-L; Human (CF lungs); read-out: MIC
S. aureus CF4B-L = assay: MIC, microdilution in CAMHB 24 h; type: cell-based, Staphylococcus aureus; conditions: Staphylococcus aureus, CF4BL; CF4B-L; Human (CF lungs); read-out: MIC
S. aureus CF6B-L = assay: MIC, microdilution in CAMHB 24 h; type: cell-based, Staphylococcus aureus; conditions: Staphylococcus aureus, CF6BL; CF6B-L; Human (CF lungs); read-out: MIC
S. aureus CF7A-L = assay: MIC, microdilution in CAMHB 24 h; type: cell-based, Staphylococcus aureus; conditions: Staphylococcus aureus; CF7A-L; Human (CF lungs); MRSA; read-out: MIC
S. aureus CF8E-L = assay: MIC, microdilution in CAMHB 24 h; type: cell-based, Staphylococcus aureus; conditions: Staphylococcus aureus, CF8EL; CF8E-L; Human (CF lungs); read-out: MIC
S. aureus CF9A-L = assay: MIC, microdilution in CAMHB 24 h; type: cell-based, Staphylococcus aureus; conditions: Staphylococcus aureus; CF9A-L; Human (CF lungs); MRSA; read-out: MIC
S. aureus CF35A-L = assay: MIC, microdilution in CAMHB 24 h; type: cell-based, Staphylococcus aureus; conditions: Staphylococcus aureus; CF35A-L; Human (CF lungs); MRSA; read-out: MIC
S. aureus CF07-L = assay: MIC, microdilution in CAMHB 24 h; type: cell-based, Staphylococcus aureus; conditions: Staphylococcus aureus, CF07L; CF07-L; Human (CF lungs); read-out: MIC
S. aureus ATCC 29213 [5] = assay: MICs of control antibiotics for macromolecular biosynthesis assays; type: cell-based; conditions: Staphylococcus aureus, ATCC29213; ATCC 29213; data not shown; read-out: MIC
S. aureus ATCC 29213 [6] = assay: MIC, microdilution in BHI 48 h (Examples 1, 3); type: cell-based, Staphylococcus aureus
S. aureus ATCC 29213 [7] = assay: MIC, microdilution in CAMHB 24 h, with or without tomatidine/compound; type: cell-based, Staphylococcus aureus; conditions: ATCC 29213; for MIC: Staphylococcus aureus, ATCC29213
[8] = Staphylococcus aureus, CF07-L, normal strain, read-out: MIC
[9] = Staphylococcus aureus, SCVCF07S

Structure (SMILES) | MIC [1] | MIC ([2]; Staphylococcus aureus) | MIC ([3]; CF07-L + HQNO at 20 μg/ml) | MIC ([3]; CF07-L, without HQNO) | MIC [3, 8] | MIC (S. aureus SCV CF07-S; CF07-S + HQNO at 20 μg/ml) | MIC (S. aureus SCV CF07-S; CF07-S, without HQNO) | MIC (S. aureus SCV CF07-S; [9]) | MIC [4] | MIC (S. aureus SCV CF1D-S) | MIC (S. aureus 8325-4) | MIC (S. aureus Newbould) | MIC (S. aureus SHY97-3906) | MIC (S. aureus ATCC 43300) | MIC (S. aureus ATCC BAA-41) | MIC (S. aureus N315) | MIC (S. aureus MA078038) | MIC (S. aureus Newman) | MIC (S. aureus MRSA COL) | MIC (S. aureus Mu50) | further results
O=C(O)c1cn(C2CC2)c2cc(N3CCNCC3)c(F)cc2c1=O [Ciprofloxacin, ciprofloxacin] | 0.25 to 0.5 µg/mL (≈ 0.754 to 1.51 µM) | 0.12 to 0.25 µg/mL (≈ 0.362 to 0.754 µM) | 0.25 µg/mL | 0.5 µg/mL (≈ 1.51 µM) | 0.5 µg/mL (≈ 1.51 µM) | 0.12 µg/mL | 0.12 µg/mL (≈ 0.362 µM) | 0.12 µg/mL (≈ 0.362 µM) | 0.5 µg/mL (≈ 1.51 µM) | 0.12 µg/mL (≈ 0.362 µM) | 0.25 to 0.5 µg/mL (≈ 0.754 to 1.51 µM) | 0.25 µg/mL (≈ 0.754 µM) | 0.25 µg/mL (≈ 0.754 µM) | 0.5 µg/mL (≈ 1.51 µM) | > 64 µg/mL | 0.25 µg/mL (≈ 0.754 µM) | 16 µg/mL (≈ 48.3 µM) | 0.25 µg/mL (≈ 0.754 µM) | 0.5 µg/mL (≈ 1.51 µM) | 32 to 64 µg/mL (≈ 96.6 to 193 µM) | MIC (S. aureus Sa220c): 32 µg/mL (≈ 96.6 µM); MIC (S. aureus Sa228c): > 64 µg/mL; MIC (S. aureus CF1A-L): 0.5 to 1 µg/mL (≈ 1.51 to 3.02 µM); MIC (S. aureus CF2A-L): 0.25 µg/mL (≈ 0.754 µM); MIC (S. aureus CF4B-L): 0.25 to 0.5 µg/mL (≈ 0.754 to 1.51 µM); MIC (S. aureus CF6B-L): > 64 µg/mL; MIC (S. aureus CF7A-L): > 64 µg/mL; MIC (S. aureus CF8E-L): 1 µg/mL (≈ 3.02 µM); MIC (S. aureus CF9A-L): > 64 µg/mL; MIC (S. aureus CF35A-L): > 64 µg/mL; MIC (S. aureus CF07-L): 0.5 µg/mL (≈ 1.51 µM)
CO[C@H]1/C=C/O[C@@]2(C)Oc3c(C)c(O)c4c(O)c(c(/C=N/N5CCN(C)CC5)c(O)c4c3C2=O)NC(=O)/C(C)=C\C=C\[C@H](C)[C@H](O)[C@@H](C)[C@@H](O)[C@@H](C)[C@H](OC(C)=O)[C@@H]1C [rifampicin] |  |  |  |  |  |  |  |  |  |  |  |  |  |  |  |  |  |  |  |  | MIC (S. aureus ATCC 29213 [5]): 0.008 to 0.015 µg/mL (≈ 0.00972 to 0.0182 µM)
CC[C@H]1OC(=O)[C@H](C)[C@@H](O[C@H]2C[C@@](C)(OC)[C@@H](O)[C@H](C)O2)[C@H](C)[C@@H](O[C@@H]2O[C@H](C)C[C@H](N(C)C)[C@H]2O)[C@](C)(O)C[C@@H](C)C(=O)[C@H](C)[C@@H](O)[C@]1(C)O [Erythromycin, erythromycin] | 0.25 µg/mL (≈ 0.341 µM) | > 16 µg/mL | 0.25 µg/mL | 0.25 µg/mL (≈ 0.341 µM) | 0.25 µg/mL (≈ 0.341 µM) | 0.06 to 0.12 µg/mL | 0.12 µg/mL (≈ 0.164 µM) | 0.12 µg/mL (≈ 0.164 µM) | 0.25 µg/mL (≈ 0.341 µM) | 0.12 µg/mL (≈ 0.164 µM) | 0.25 to 0.5 µg/mL (≈ 0.341 to 0.681 µM) | 0.5 µg/mL (≈ 0.681 µM) | 0.12 to 0.25 µg/mL (≈ 0.164 to 0.341 µM) | > 64 µg/mL | > 64 µg/mL | > 64 µg/mL | 64 µg/mL (≈ 87.2 µM) | 0.5 µg/mL (≈ 0.681 µM) | 0.5 µg/mL (≈ 0.681 µM) | > 64 µg/mL | MIC (S. aureus ATCC 29213 [6]; ATCC 29213 + HQNO at 20 μg/ml): 0.25 µg/mL; MIC (S. aureus ATCC 29213 [6]; Staphylococcus aureus, ATCC29213, ATCC 29213, without HQNO, read-out: MIC): 0.12 to 0.25 µg/mL (≈ 0.164 to 0.341 µM); MIC (S. aureus ATCC 29213 [6]; Staphylococcus aureus, ATCC29213, ATCC 29213 in BHI, read-out: MIC): 0.12 to 0.25 µg/mL (≈ 0.164 to 0.341 µM); MIC (S. aureus ATCC 29213 [6]; Staphylococcus aureus, ATCC29213, ATCC 29213 in MHBCA, read-out: MIC): 0.12 to 0.5 µg/mL (≈ 0.164 to 0.681 µM); MIC ([2]; NewbouldΔhemB, SCV, listed as ERY): >16 µg/mL; Fold (−TO/+TO) (S. aureus ATCC 29213 [7]; tomatidine at 8 μg/ml): 1 fold; MIC (S. aureus ATCC 29213 [7]; Human (SSTI), read-out: MIC): 0.5 µg/mL (≈ 0.681 µM); MIC (S. aureus ATCC 29213 [7]; absence of tomatidine, read-out: MIC −TO): 0.5 µg/mL (≈ 0.681 µM); MIC (S. aureus ATCC 29213 [7]; presence of tomatidine at 8 μg/ml, read-out: MIC +TO): 0.5 µg/mL; MIC (S. aureus Sa220c): 0.5 to 1 µg/mL (≈ 0.681 to 1.36 µM); MIC (S. aureus Sa228c): > 64 µg/mL; MIC (S. aureus CF1A-L): 0.25 to 0.5 µg/mL (≈ 0.341 to 0.681 µM); MIC (S. aureus CF2A-L): 0.5 µg/mL (≈ 0.681 µM); MIC (S. aureus CF4B-L): 0.5 µg/mL (≈ 0.681 µM); MIC (S. aureus CF6B-L): 0.5 to 2 µg/mL (≈ 0.681 to 2.73 µM); MIC (S. aureus CF7A-L): > 64 µg/mL; MIC (S. aureus CF8E-L): 0.5 µg/mL (≈ 0.681 µM); MIC (S. aureus CF9A-L): > 64 µg/mL; MIC (S. aureus CF35A-L): > 64 µg/mL; MIC (S. aureus CF07-L): 0.5 µg/mL (≈ 0.681 µM)
